Experimental data as given in publication PMC10447463, “Data-mining unveils structure–property–activity correlation of viral infectivity enhancing self-assembling peptides” (Nature Communications, 2023).
Several values for one entry are separate records, joined by “and”; a condition that tells them apart may be missing. Identical values can stand only once. Like-named read-outs stand apart in the source and are kept apart here.

What was measured:
[1] = test system: HIV-1 infection of TZM-bl cells; experiment: HIV-1 infectivity enhancement assay, β-galactosidase luminescence; assay type: cell-based; conditions: for Rel-EFC / Log10 Infection Rel EFC: 1.3 µM peptide; for Rel-EFC: infection relative to EF-C (QCKIKQIINMWQ = 1); for Log10 Infection Rel EFC: log10 of infection relative to EF-C; for Log Infectivity: Log10 infection relative to EF-C, asymmetric std dev errors; for Log10 Infection Rel EF-C: HIV-1 infection of TZM-bl cells; for Log10 of Rel to EFC (Feb2021): Log10 of infection relative to EF-C, all peptides of FigS16; for Abs. Inf.: β-galactosidase luminescence; for Log10 Inf. rel. to EF-C: log10 of HIV-1 infection of TZM-bl cells relative to EF-C (EF-C = 0)
[2] = Turbidity, derived count rate of scattered light; assay type: physicochemical; conditions: for Count Rate / kcps: derived count rate of scattered light at 633 nm, 173°, from zeta-potential measurement, 0.1 mg/mL in 1 mM KCl after 1 d at 1 mg/mL in PBS, turbidity / microscopic aggregation, mean of triplicate
Summary of the method: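 Samples: 1 mg/mL in PBS pH 7.4 (from DMSO), 1 d at RT, then diluted in 1 mM KCl immediately before measurement. Triplicates, two independent runs averaged.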

[3] = Zeta-potential measurement; assay type: physicochemical
Summary of the method: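 In this measurement, peptides aggregated for a day at RT in phosphate-buffered saline (pH 7.4, 1 mg/mL) are diluted into 1 mM potassium chloride, and the electrophoretic mobility is translated into zeta potential by Smoluchowski's relation.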

[4] = β-sheet content by ATR-FT-IR; assay type: physicochemical; conditions: for b -sheet / %: Fig. S7 panel A, β-sheet content by ATR-FT-IR
Procedure: For ATR FT–IR spectroscopy measurements, 200 µL of the respective 1 mg/mL PNF solution was lyophilized and the resulting powder used for measurement. All spectra were recorded on a Bruker Tensor 27 spectrometer with a diamond crystal as ATR element (PIKE MiracleTM, spectral resolution 2 cm^-1). Every sample was measured with 64 scans. Data were analyzed with OriginLab software and calculation of β–sheet content was conducted according to a previous report. TEM. For TEM measurements 5 µL of PNF fibrils (1 mg/mL) were placed on copper grids coated with carbon and formvar layer (300 mesh, Plano GmbH). After 10 min incubation time, the grids were staining with 4% uranyl acetate solution for 2.5 min and washed with water. Measurements were performed on a Jeol 1400 electron microscope with 120 kV acceleration voltage. CR Assay. For the determination of the amount of peptide monomer converting into nanostructures the amine reactive dye fluorescamine was used analogous to a previous reported protocol. Briefly, 100 µL of the preformed PNF solution was centrifuged in a Vivaspin 500 tube (3 kDa MWCO) to separate fibers from free peptide monomer (16200 x g, 4 °C, 45 min). The filtrate and 100 μL of the non-filtered PNF sample were lyophilized and dissolved in 30 μL DMSO. 10 μL of the filtrate and non-filtered DMSO samples were submitted in a black UV Star® 384 microliter well–plates (Greiner bio–one) and 3 μL of the fluorescamine solution (10 mg/mL, DMSO) was added to measure the fluorescence enhancement. After 20 min of incubation at RT, fluorescence was recorded on an Infinite® M1000 PRO microplate reader (Tecan) at λem = 470 nm upon excitation at λex = 365 nm with 10 nm bandwidths and multiple reads per well (3×3). Measurements were repeated in triplicates and averaged with standard deviation. All values were calculated as n-fold fluorescence enhancement (DMSO only as a reference was set to 1). The conversion rate CR was defined according to the equation Eq. (3).3 CR=100−100×fluorescenceintensityfiltrate/fluorescenceintensityoriginal[%]

[5] = Turbidity, derived count rate of scattered light; assay type: physicochemical; conditions: for Count Rate: derived count rate of scattered light (turbidity); for Log10 Count Rate: turbidity, derived count rate of scattered light, data of Figure 2D
[6] = Fig. S7 panel A (plotted against β-sheet content), TZM-bl cells
[7] = Fig. S7 panel B (plotted against CR), rounded to two decimals, TZM-bl cells
[8] = Log10 of infection rate relative to EF-C, Figure 3A source data
[9] = infection rate relative to EF-C, log10, data of Figure 2D
[10] = infection rate relative to EF-C, log10, source data of Figure 2C
[11] = Log10 of derived count rate of scattered light (turbidity)
[12] = log10 of derived count rate of scattered light (turbidity)
[13] = logarithm of count rate in kcps
[14] = turbidity, Log10 of derived count rate of scattered light, Figure 3A source data
[15] = zeta-potential of peptide, source data of Figure 2C
[16] = zeta-potential of the peptide assemblies, mean, Figure 3A source data
[17] = absolute infection signal, HIV-1 on TZM-bl cells
[18] = turbidity, log10 of derived count rate of scattered light

Substance	Rel-EFC [1]	Log10 Infection Rel EFC [1]	Log Infectivity [1, 6]	Log Infectivity [1, 7]	Log10 Infection Rel EF-C [1, 8]	Log10 Infection Rel EF-C [1, 9]	Log10 Infection Rel EF-C [1, 10]	Log10 of Rel to EFC (Feb2021) [1]	Log10 Count Rate [2, 11]	Count Rate / kcps [2]	Log10 Count Rate [2, 13]	Log10 Count Rate [2, 14]	Zeta-Pot. [3]	Zeta-Potential / mV [3, 15] [mV]	Zeta-Potential / mV [3, 16] [mV]	b -sheet / % [4] [%]	Count Rate [5]	Log10 Count Rate [5]	Abs. Inf. [1, 17]	Log10 Inf. rel. to EF-C [1]	other results
CKFKFQFW	0,88	-0,06	-0.05512	-0.06	-0.06	-0.05512	-0.05512	-0.06	4.466	29211 kcps	4.466	4.466	15.2	16.02	15.2	42.53	29210.5	4.466	–	–	Abs. Inf. ([1]; absolute HIV-1 infection signal, TZM-bl cells): 17862.22222; Log10 Count Rate [2, 12]: 4.466
CKFKQFF	0,01	-2,17	-2.171	-2.17	-2.17	-2.171	-2.171	–	0.4094	3 kcps	0.4099	0.4094	11.56	8.055	11.56	45.4057	2.567	0.4094	260	-2.171	Abs. Infection at 0.26 µM ([1]; peptide 0.26 µM, mean of n = 3, Figure 4A): 366.7; Infect 1 0.26 µM ([1]; peptide 0.26 µM, replicate 1, absolute infection signal, Figure 4A): 260; Infect 2 0.26 µM ([1]; peptide 0.26 µM, replicate 2, absolute infection signal, Figure 4A): 50; Infect 3 0.26 µM ([1]; peptide 0.26 µM, replicate 3, absolute infection signal, Figure 4A): 790; Abs. Infection at 1.3 µM ([1]; peptide 1.3 µM, mean of n = 3, Figure 4A): 260; Infect 1 .3 µM ([1]; peptide 1.3 µM, replicate 1, absolute infection signal, Figure 4A): 440; Infect 2 1.3µM ([1]; peptide 1.3 µM, replicate 2, absolute infection signal, Figure 4A): 160; Infect 3 1.3 µM ([1]; peptide 1.3 µM, replicate 3, absolute infection signal, Figure 4A): 180; Log10 Count Rate [2, 18]: 0.4094
CKFKQFFNM	0,41	-0,39	-0.3892	–	-0.39	-0.3892	-0.3892	-0.39	4.436	27264 ± 5488 kcps and 27264 kcps	4.436	4.436	15.2	15.05	15.2	41.58	27264.3	4.436	15720	-0.3892	Log10 Count Rate [2, 18]: 4.436
CKFKQFFNMWQ	0,61	-0,21	-0.2148	-0.21	-0.21	-0.2148	-0.2148	-0.21	3.914	8210 kcps	–	3.914	8.563	10.915	8.56	59.11	8210	3.914	23486.66667	-0.2148	Log10 Count Rate [2, 18]: 3.914
CKIKIQI	1,02	0,01	0.0081	0.01	0.01	0.0081	0.0081	0.01	3.386	2432 ± 1342 kcps and 2433 kcps	3.386	3.386	–	13.2	12.8	53	2432.9	3.386	–	–	Abs. Inf. / RLU s-1 ([1]; absolute infection rate, peptide 1.3 µM on cells, virus preincubated 10 min with fibrils, read 3 days post infection, mean of triplicate): 19406.66667 RLU s-1; Abs. Infection at 0.26 µM ([1]; peptide 0.26 µM, mean of triplicate): 4967; Infection RLU/s, 1.3 µm abs ([1]; peptide 1.3 µm (so in the source), mean of the 3 replicates): 19406.66667 RLU/s; Log10 Count Rate [2, 12]: 3.386; Zeta Count Rate ([2]; mean of the 3 replicates): 2432.9 kcps; Zeta Count Rate ([2]; replicate 2): 1640.5 kcps; Zeta Count Rate ([2]; replicate 3): 4323.3 kcps; Zeta pot. / mV ([3]; 1 mg/mL in PBS pH 7.4 from 10 mg/mL DMSO stock, 1 d RT, 60 µL diluted in 600 µL 1 mM KCl, Zetasizer Nano ZS, Smoluchowski, mean of triplicate): 12.8 mV; Zeta-Pot. ([3]; zeta potential of peptide assemblies): 12.8; FTIR ß-sheet content [4]: 53%
